Test results taken from ChEMBL document CHEMBL1139328, “4-Fluoro-N-butylphenylacetamide (H6) inhibits cell growth via cell-cycle arrest and apoptosis in human cervical cancer cells” (2009).
Active and inactive are the calls of the source. The calls are words filed in the database; no cut-off is given here.

Tests used:
Ca-Ski [1] = test: Induction of apoptosis in human CaSki cells assessed as proteolytic activation of caspase 3 at 1 mM by SDS-PAGE; format: functional, cell-based
Ca-Ski [2] = test: Cell cycle arrest in human CaSki cells assessed as accumulation at G2/M phase after 48 hrs by flow cytometry; format: functional
Ca-Ski [3] = test: Increase in p53 protein level in human CaSki cells at 1 mM up to 48 hrs by Western blot; format: functional, cell-based
HeLa [4] = test: Induction of apoptosis in human HeLa cells assessed as chromatin condensation at 1 mM after 48 hrs by TUNEL/DAPI double staining; format: functional, cell-based
Ca-Ski [5] = test: Induction of apoptosis in human CaSki cells assessed as nuclear DNA fragmentation at 1 mM after 48 hrs by TUNEL/DAPI double staining; format: functional, cell-based
HeLa [6] = test: Induction of apoptosis in human HeLa cells assessed as proteolytic activation of caspase 3 at 1 mM by SDS-PAGE; format: functional, cell-based
Ca-Ski [7] = test: Induction of apoptosis in human CaSki cells assessed as proteolytic activation of caspase 9 at 1 mM by SDS-PAGE; format: functional, cell-based
HeLa [8] = test: Cell cycle arrest in human HeLa cells assessed as accumulation at G2/M phase after 24 hrs by flow cytometry; format: functional
Ca-Ski [9] = test: Decrease in Bcl2 protein expression in human CaSki cells at 1 mM by Western blot; format: functional, cell-based
HeLa [10] = test: Cell cycle arrest in human HeLa cells assessed as accumulation at G0/G1 phase after 48 hrs by flow cytometry; format: functional
HeLa [11] = test: Decrease in cyclin B protein expression in human HeLa cells at 1 mM by Western blot; format: functional, cell-based
Ca-Ski [12] = test: Cell cycle arrest in human CaSki cells assessed as accumulation at G2/M phase after 8 hrs by flow cytometry; format: functional
Ca-Ski [13] = test: Cell cycle arrest in human CaSki cells assessed as accumulation at G2/M phase after 24 hrs by flow cytometry; format: functional
HeLa [14] = test: Cell cycle arrest in human HeLa cells assessed as accumulation at S phase after 8 hrs by flow cytometry; format: functional
HeLa [15] = test: Induction of apoptosis in human HeLa cells at 1 mM after 8 hrs by TUNEL/DAPI double staining; format: functional
Ca-Ski [16] = test: Induction of cytosolic cytochrome c accumulation in human CaSki cells at 1 mM by SDS-PAGE; format: functional, cell-based; settings: TDE = time-dependent effect
Ca-Ski [17] = test: Decrease in cyclin A protein expression in human CaSki cells at 1 mM by Western blot; format: functional, cell-based
HeLa [18] = test: Induction of apoptosis in human HeLa cells assessed as caspase 3 activation by fluorogenic substrate based assay after 24 hrs; format: functional, cell-based
Ca-Ski [19] = test: Cell cycle arrest in human CaSki cells assessed as accumulation at S phase after 8 hrs by flow cytometry; format: functional
Ca-Ski [20] = test: Increase in p53 protein level in human CaSki cells at 1 mM after 24 hrs by Western blot; format: functional, cell-based
HeLa [21] = test: Induction of apoptosis in human HeLa cells assessed as proteolytic activation of caspase 9 at 1 mM by SDS-PAGE; format: functional, cell-based
HeLa [22] = test: Induction of apoptosis in human HeLa cells assessed as caspase 9 activation by fluorogenic substrate based assay after 48 hrs; format: functional, cell-based
HeLa [23] = test: Decrease in CDK1 protein expression in human HeLa cells at 1 mM by Western blot; format: functional, cell-based
HeLa [24] = test: Cell cycle arrest in human HeLa cells assessed as accumulation at S phase after 24 hrs by flow cytometry; format: functional
Ca-Ski [25] = test: Induction of apoptosis in human CaSki cells at 1 mM after 24 hrs by TUNEL/DAPI double staining; format: functional
Ca-Ski [26] = test: Cell cycle arrest in human CaSki cells assessed as accumulation at G0/G1 phase after 24 hrs by flow cytometry; format: functional
Ca-Ski [27] = test: Cell cycle arrest in human CaSki cells assessed as accumulation at G0/G1 phase after 48 hrs by flow cytometry; format: functional
Ca-Ski [28] = test: Induction of apoptosis in human CaSki cells at 1 mM after 8 hrs by TUNEL/DAPI double staining; format: functional
Ca-Ski [29] = test: Cell cycle arrest in human CaSki cells assessed as accumulation at S phase after 48 hrs by flow cytometry; format: functional
HeLa [30] = test: Effect on Bcl-Xl protein expression in human HeLa cells at 1 mM by Western blot; format: functional, cell-based
Ca-Ski [31] = test: Decrease in cyclin B protein expression in human CaSki cells at 1 mM by Western blot; format: functional, cell-based
Ca-Ski [32] = test: Increase in Bax protein expression in human CaSki cells at 1 mM by Western blot; format: functional, cell-based
HeLa [33] = test: Cell cycle arrest in human HeLa cells assessed as accumulation at G2/M phase after 48 hrs by flow cytometry; format: functional
HeLa [34] = test: Induction of apoptosis in human HeLa cells assessed as nuclear DNA fragmentation at 1 mM after 48 hrs by TUNEL/DAPI double staining; format: functional, cell-based
HeLa [35] = test: Cell cycle arrest in human HeLa cells assessed as accumulation at G0/G1 phase after 8 hrs by flow cytometry; format: functional
HeLa [36] = test: Increase in Bax protein expression in human HeLa cells at 1 mM by Western blot; format: functional, cell-based
Ca-Ski [37] = test: Cytotoxicity against human CaSki cells by trypan blue exclusion method; format: functional, cell-based; settings: TDE = time-dependent effect
HeLa [38] = test: Decrease in CDK2 protein expression in human HeLa cells at 1 mM by Western blot; format: functional, cell-based
HeLa [39] = test: Induction of apoptosis in human HeLa cells at 1 mM after 24 hrs by TUNEL/DAPI double staining; format: functional
HeLa [40] = test: Cytotoxicity against human HeLa cells by trypan blue exclusion method; format: functional, cell-based
HeLa [41] = test: Cell cycle arrest in human HeLa cells assessed as accumulation at G0/G1 phase after 24 hrs by flow cytometry; format: functional
Ca-Ski [42] = test: Induction of apoptosis in human CaSki cells assessed as caspase 9 activation by fluorogenic substrate based assay after 48 hrs; format: functional, cell-based
Ca-Ski [43] = test: Induction of apoptosis in human CaSki cells at 1 mM after 48 hrs by TUNEL/DAPI double staining; format: functional
HeLa [44] = test: Induction of apoptosis in human HeLa cells at 1 mM after 48 hrs by TUNEL/DAPI double staining; format: functional
Ca-Ski [45] = test: Cell cycle arrest in human CaSki cells assessed as accumulation at S phase after 24 hrs by flow cytometry; format: functional
Ca-Ski [46] = test: Effect on Bcl-Xl protein expression in human CaSki cells at 1 mM by Western blot; format: functional, cell-based
HeLa [47] = test: Induction of cytosolic cytochrome c accumulation in human HeLa cells at 1 mM by SDS-PAGE; format: functional, cell-based; settings: TDE = time-dependent effect
Ca-Ski [48] = test: Induction of apoptosis in human CaSki cells assessed as chromatin condensation at 1 mM after 48 hrs by TUNEL/DAPI double staining; format: functional, cell-based
Ca-Ski [49] = test: Induction of apoptosis in human CaSki cells assessed as caspase 3 activation by fluorogenic substrate based assay after 24 hrs; format: functional, cell-based
Ca-Ski [50] = test: Cell cycle arrest in human CaSki cells assessed as accumulation at G0/G1 phase after 8 hrs by flow cytometry; format: functional
Ca-Ski [51] = test: Decrease in CDK1 protein expression in human CaSki cells at 1 mM by Western blot; format: functional, cell-based
HeLa [52] = test: Decrease in Bcl2 protein expression in human HeLa cells at 1 mM by Western blot; format: functional, cell-based
HeLa [53] = test: Increase in p53 protein level in human HeLa cells at 1 mM after 24 hrs by Western blot; format: functional, cell-based
HeLa [54] = test: Cell cycle arrest in human HeLa cells assessed as accumulation at S phase after 48 hrs by flow cytometry; format: functional
HeLa [55] = test: Cell cycle arrest in human HeLa cells assessed as accumulation at G2/M phase after 8 hrs by flow cytometry; format: functional
Ca-Ski [56] = test: Decrease in CDK2 protein expression in human CaSki cells at 1 mM by Western blot; format: functional, cell-based
HeLa [57] = test: Decrease in cyclin A protein expression in human HeLa cells at 1 mM by Western blot; format: functional, cell-based

SMILES: CCCCNC(=O)Cc1ccc(F)cc1
- Activity (Ca-Ski [1]): Active
- Activity (Ca-Ski [2]): 28.6%
- Activity (Ca-Ski [3]): Active
- Activity (HeLa [4]): Active
- Activity (Ca-Ski [5]): Active
- Activity (HeLa [6]): Active
- Activity (Ca-Ski [7]): Active
- Activity (HeLa [8]): 28.5%
- Activity (Ca-Ski [9]): Active
- Activity (HeLa [10]): 30.6%
- Activity (HeLa [11]): Active
- Activity (Ca-Ski [12]): 18.6%
- Activity (Ca-Ski [13]): 26.5%
- Activity (HeLa [14]): 46.9%
- Activity (HeLa [15]): 1.9%
- Activity (Ca-Ski [16]): tde
- Activity (Ca-Ski [17]): Active
- Activity (HeLa [18]): Active
- Activity (Ca-Ski [19]): 27.7%
- Activity (Ca-Ski [20]): Active
- Activity (HeLa [21]): Active
- Activity (HeLa [22]): Active
- Activity (HeLa [23]): Active
- Activity (HeLa [24]): 28.9%
- Activity (Ca-Ski [25]): 6%
- Activity (Ca-Ski [26]): 52.7%
- Activity (Ca-Ski [27]): 51.5%
- Activity (Ca-Ski [28]): 5.6%
- Activity (Ca-Ski [29]): 19.9%
- Activity (HeLa [30]): inactive
- Activity (Ca-Ski [31]): Active
- Activity (Ca-Ski [32]): Active
- Activity (HeLa [33]): 46.7%
- Activity (HeLa [34]): Active
- Activity (HeLa [35]): 31.2%
- Activity (HeLa [36]): Active
- Activity (Ca-Ski [37]): tde
- Activity (HeLa [38]): Active
- Activity (HeLa [39]): 23.6%
- Activity (HeLa [40]): Dose-dependent effect
- Activity (HeLa [41]): 42.6%
- Activity (Ca-Ski [42]): Active
- Activity (Ca-Ski [43]): 13.2%
- Activity (HeLa [44]): 28.2%
- Activity (Ca-Ski [45]): 21%
- Activity (Ca-Ski [46]): inactive
- Activity (HeLa [47]): tde
- Activity (Ca-Ski [48]): Active
- Activity (Ca-Ski [49]): Active
- Activity (Ca-Ski [50]): 53.6%
- Activity (Ca-Ski [51]): Active
- Activity (HeLa [52]): Active
- Activity (HeLa [53]): Active
- Activity (HeLa [54]): 22.7%
- Activity (HeLa [55]): 22.1%
- Activity (Ca-Ski [56]): Active
- Activity (HeLa [57]): Active
